In patent US20230365927A1, “COMPOSITION AND METHOD FOR […] NON-NEURONAL CELLS INTO NEURONS” (INSTITUTE OF ZOOLOGY, CHINESE ACADEMY OF SCIENCES, priority 2020, published 2023):

Tested on: human foreskin fibroblasts (HFF1y, Beijing Stem Cell Bank)
Experiment: Transdifferentiation of human foreskin fibroblasts into neurons in vitro (induction culture solution, then mature culture solution)
Format: cell-based
Conditions: for rank of gene expression level of neuronal markers (MAPT and MAP2) by myosin inhibitor in the culture solutions: induction 7 days, mature solution (with isoxazole) 7 days, Examples 8-12
Procedure: After removing the fibronectin solution, the human foreskin fibroblasts (HFF1y, Beijing Stem Cell Bank) were evenly inoculated at 2×10^6 cells per vessel, culturing with basal medium (high glucose DMEM (Gibco, C12430500BT) plus 10% fetal bovine serum (Gibco, 16000-044)) for 12 hours. After removing the basal medium, the cells were washed with PBS.
An induction culture solution was added to the HFF1y vessel after undergoing the above treatment to culture for 1-7 days.
After the above induction culture for 1-7 days, a mature culture solution was added to HFF1y to culture for 7-45 days.

[1] = induction solution without Ble 7 days, then mature solution with ISX9 and without Ble 7 days

| SMILES | rank of gene expression level of neuronal markers (MAPT and MAP2) by myosin inhibitor in the culture solutions | RNA-seq, GO cluster analysis of up-regulated genes (induction culture system comprising only Ble, p<0.05) | cell morphology after induction culture solution only (induction solution 25 μM Ble, 1-7 days, no isoxazole) | cell morphology (micrograph) [1] | expressions of canonical neuronal markers (GFAP, TUJ1, MAP2, MAPT, STMN1, NCAM) and synapse-related proteins (NEFH, PSD95, SYN1, SYT) [1] | gene expression of fibroblast marker FSP1 [1] | gene expression of neural transcription factors (ASCL1, BRN2, NEUROD1) [1] |
| --- | --- | --- | --- | --- | --- | --- | --- |
| Cc1ccc2c(c1)C(=O)[C@]1(O)CCN(c3ccccc3)C1=N2 [Ble, (−)-Blebbistatin] | highest | up-regulated genes in induced cells were enriched in the neuronal fate-related pathways | obvious neuronal morphology, small and round cell bodies, and rich and long synapses |  |  |  |  |
| Cc1ccc2c(c1)C(=O)[C@]1(OC(=O)c3ccccc3)CCN(c3ccccc3)C1=N2 [Ble-OB, (−)-Blebbistatin O-Benzoate] | third |  |  |  |  |  |  |
| O=C(NC1CC1)c1cc(-c2cccs2)on1 [ISX9, isoxazole 9] |  |  |  | do not appear neuron-like morphology | significantly up-regulated | significantly down-regulated | up-regulated |
